Legend:
Test in all cases: Stopped-Flow kinetic assay, carbonic anhydrase inhibition
CA IX = CA IX (Homo sapiens, UniProt Q16790)
Experimental: (§1) All hybrid compounds and individual CAI moieties with OH/SH group were tested for inhibition of off-target isoforms CA I and II and CAI IV, IX and XII by a Stopped-Flow kinetic assay.

CA II = CA II (Homo sapiens, UniProt P00918)
Experimental: as §1

CA I = CA I (Homo sapiens, UniProt P00915)
Experimental: as §1

CA IV = CA IV (Homo sapiens, UniProt P22748)
Experimental: as §1

CA XII = CA XII (Homo sapiens, UniProt O43570)
Chain of CA XII (O43570 25-354): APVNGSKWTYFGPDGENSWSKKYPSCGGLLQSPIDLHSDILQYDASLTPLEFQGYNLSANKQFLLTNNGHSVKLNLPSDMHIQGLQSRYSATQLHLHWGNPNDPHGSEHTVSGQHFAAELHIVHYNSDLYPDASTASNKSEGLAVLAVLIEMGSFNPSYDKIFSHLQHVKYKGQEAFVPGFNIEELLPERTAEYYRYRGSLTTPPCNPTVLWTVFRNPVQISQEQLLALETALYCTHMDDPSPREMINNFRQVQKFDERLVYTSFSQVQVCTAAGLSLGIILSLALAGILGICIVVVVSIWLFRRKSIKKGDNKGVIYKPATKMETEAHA
Experimental: as §1

Chain of CA IV (P22748 19-284): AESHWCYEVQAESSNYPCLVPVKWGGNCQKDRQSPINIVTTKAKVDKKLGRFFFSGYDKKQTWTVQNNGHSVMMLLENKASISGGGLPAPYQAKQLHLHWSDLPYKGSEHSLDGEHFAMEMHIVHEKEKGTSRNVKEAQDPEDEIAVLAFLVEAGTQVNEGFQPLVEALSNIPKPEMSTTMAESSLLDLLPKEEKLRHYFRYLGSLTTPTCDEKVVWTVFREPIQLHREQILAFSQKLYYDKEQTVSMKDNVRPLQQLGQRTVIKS
Chain of CA I (P00915 whole entry): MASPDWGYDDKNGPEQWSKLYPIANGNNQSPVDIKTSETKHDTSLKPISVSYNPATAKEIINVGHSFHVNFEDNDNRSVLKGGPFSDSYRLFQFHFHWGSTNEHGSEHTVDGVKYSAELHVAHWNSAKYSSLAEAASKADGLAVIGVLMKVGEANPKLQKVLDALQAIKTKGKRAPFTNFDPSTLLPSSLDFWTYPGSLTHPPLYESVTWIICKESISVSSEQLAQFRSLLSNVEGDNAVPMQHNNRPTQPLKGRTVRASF

| SMILES | Ki (CA IX) [nM] | Ki (CA II) [nM] | Ki (CA I) [nM] | Ki (CA IV) [nM] | Ki (CA XII) [nM] |
| --- | --- | --- | --- | --- | --- |
| O=c1ccc2cc(OCCO)ccc2o1 [Compound G1A, 6-(2-hydroxyethoxy)-2H-chromen-2-one] | 306 | > 10000 | > 10000 |  |  |
| Cc1c(OCC(F)(F)F)ccnc1C[S+]([O-])c1nc2ccccc2n1C(=O)OCCOc1ccc2ccc(=O)oc2c1 (stereo not shown) [Compound A2, 2-((2-Oxo-2H-chromen-7-yl)oxy)ethyl 2-(((3-methyl-4-(2,2,2-trifluoroethoxy)pyridin-2-yl)methyl)sulfinyl)-1H-benzo[d]imidazole-1 carboxylate] | 97.2 | > 10000 | > 10000 | 10.3 | 60.3 |
| Cc1c(OCC(F)(F)F)ccnc1C[S+]([O-])c1nc2ccccc2n1C(=O)OCCOc1ccc2oc(=O)ccc2c1 (stereo not shown) [Compound A1, 2-((2-Osso-2H-cromen-6-il)ossi)etil 2-(((3-metil-4-(2,2,2-trifluoroetossi)piridin-2-il)metil)sulfinil)-1H-benzo[d]imidazolo-1 carbossilato] | 79.2 | > 10000 | > 10000 | 14.4 | 53 |
| Cc1c(OCC(F)(F)F)ccnc1C[S+]([O-])c1nc2ccccc2n1C(=O)OCCCOc1ccc2oc(=O)ccc2c1 (stereo not shown) [Compound A3] | 41.6 | > 10000 | > 10000 | 6.4 | 8.9 |
| Cc1c(OCC(F)(F)F)ccnc1C[S+]([O-])c1nc2ccccc2n1C(=O)OCCCOc1ccc2ccc(=O)oc2c1 (stereo not shown) [Compound A4] | 47 | > 10000 | > 10000 | 7.7 | 20.6 |
| O=c1ccc2ccc(OCCO)cc2o1 [Compound G1B, 7-(2-idrossietossi)-2H-cromen-2-one] | 334 | > 10000 |  |  |  |

— patent US20250099446A1, “HYBRID PHARMACEUTICAL COMPOSITION OBTAINED BY CONJUGATION OF A PROTON PUMP INHIBITOR AND A CARBON ANHYDRASE INHIBITOR” (EXO LAB ITALIA, S.r.l., priority 2022, published 2025)
